Reference: patent US6680025B2, “Device and method for photoactivation” (Cerus Corporation, priority 1989, dated 2004)

How the values were obtained:
[1] = system: T4 polymerase; experiment: Primer extension on monoadducted 71-mer, T4 polymerase; format: biochemical; conditions: 37° C., 0, 5 or 15 minutes
Text: The sequences that are presented in FIG. 26 describe several oligonucleotides that are used in the synthesis of either a normal 71-mer or the identical 71-mer containing a site-specifically placed psoralen or isopsoralen monoadduct. The 71-mer is a sub-sequence of the Human Immunodeficiency Virus (HIV) sequence. (An HIV DNA system is described in a co-pending application, Serial No. 225,725.) SK-39 is a primer oligonucleotide that is complementary to the 3′ end of the 71-mers. This primer oligonucleotide can be extended on the 71-mer template to make a complementary strand of the 71-mer.
Preparation of 71-mers which contain site-specific monoadducts involves 1) preparation of different 15-mer monoadducts from the same unmodified 15-mer (HRI-42), and 2) ligation of the different 15-mer monoadducts to the same 56-mer “extender oligonucleotide” (HRI 102) using a 25-mer oligonucleotide (HRI-45) as a splint. The arrows in FIG. 27 indicate the direction of synthesis, while the monoadduct is indicated by a short line that is perpendicular to the oligomer. While each of the 71-mer monoadducts contains the adduct at a base position that is greater than 56 bases from the 5′ end, the precise position of the monoadduct is not meant to be indicated.
To prepare the 15-mer adducts, the 15-mer was incubated with a complementary 10-mer along with psoralen or isopsoralen under hybridization conditions. The mixture was then irradiated to provide the monoadducted 15-mer. While the invention is not dependent on knowing the precise mechanism of coupling, it has generally been believed that the 10-mer directs the isopsoralen to a single TpA site within the double-stranded helix formed by the 10-mer/15-mer hybrid. […]
To provide highly purified 71-mers which contain a single monoadduct, it was necessary to provide highly purified 15-mer monoadduct prior to the ligation step. […] Separation of 15-mer monoadduct from unmodified 15-mer was readily accomplished by PAGE (while the same technique is not effective for separation of the corresponding unmodified 71-mer and monoadducted 71-mer sequences). […]

[2] = biological target: Taq polymerase (Thermus aquaticus, UniProt P19821); experiment: Taq primer extension of 71-mer after random addition of compound or photoproduct; format: biochemical; conditions: for extension of 71-mer irradiated with compound: AMIP 200 μg/ml, AMDMIP 200 μg/ml, irradiated 15 minutes CE-I at 25° C.
Taq polymerase, sequence (P19821 whole entry): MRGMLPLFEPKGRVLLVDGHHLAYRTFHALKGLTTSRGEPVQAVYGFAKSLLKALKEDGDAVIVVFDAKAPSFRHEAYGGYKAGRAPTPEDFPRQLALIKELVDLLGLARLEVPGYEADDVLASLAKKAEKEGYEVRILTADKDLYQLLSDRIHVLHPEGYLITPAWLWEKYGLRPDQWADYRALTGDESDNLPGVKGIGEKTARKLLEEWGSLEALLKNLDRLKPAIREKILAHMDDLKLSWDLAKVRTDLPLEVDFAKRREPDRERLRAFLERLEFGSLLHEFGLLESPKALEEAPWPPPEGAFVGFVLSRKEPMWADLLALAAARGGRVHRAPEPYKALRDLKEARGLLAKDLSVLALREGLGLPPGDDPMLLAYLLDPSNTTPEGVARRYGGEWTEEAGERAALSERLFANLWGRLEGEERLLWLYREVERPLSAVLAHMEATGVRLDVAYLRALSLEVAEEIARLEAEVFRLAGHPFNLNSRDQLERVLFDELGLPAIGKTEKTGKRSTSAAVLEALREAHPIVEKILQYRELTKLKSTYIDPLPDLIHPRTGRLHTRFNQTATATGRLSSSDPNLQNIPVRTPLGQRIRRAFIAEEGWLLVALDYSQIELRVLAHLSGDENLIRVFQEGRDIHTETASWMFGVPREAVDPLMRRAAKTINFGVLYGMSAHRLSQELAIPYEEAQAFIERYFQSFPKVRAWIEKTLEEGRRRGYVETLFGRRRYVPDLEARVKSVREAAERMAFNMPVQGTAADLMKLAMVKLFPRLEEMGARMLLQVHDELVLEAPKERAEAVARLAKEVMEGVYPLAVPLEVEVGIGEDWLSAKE
Text: In this experiment, the ability of AMIP, AMDMIP and MIF to block replication of 71-mer is investigated by randomly adding each compound to the 71-mer. Of course, addition may only be random in the sense that one or more adducts may be formed with any one strand of nucleic acid. The actual placement of the isopsoralen may be governed by preferential binding at particular sites (e.g. A:T). In addition to blockage by random adducts, photoproducts of the various isopsoralens may be providing an inhibitory effect. No attempt to separate the effects of photoproduct from the effects of covalent adducts on the 71-mer template was made in this series of experiments.
In these experiments, the 71-mer template (10^−9 M) was primed with ^32P-SK-39 (10^−8) and extended with Taq polymerase in a total volume of […]. The dNTP concentration was 200 μM. In the control samples, the 71-mer, the primer, and the dNTPs were mixed in Taq buffer in a volume of 18 p1. These samples were initially denatured at 95° C. for 5 minutes, followed by equilibration at 55° C. for 3 minutes. Taq enzyme was then added (0.5 units) and the extension reaction was carried out for 5 minutes at 55° C. The reaction was stopped by making the solution 10 mM in EDTA. In another set of samples, the 71-mer in 10 μl was mixed with either AMIP (200 μg/ml), AMDMIP (200 μg/ml), or MIP (60 μg/ml). Half of these samples were irradiated for 15 minutes on the CE-I device at 25° C. The other half was kept in the dark as controls. These samples were then mixed with the primer and dNTPs as before, and were subjected to the same thermal profile and extension reactions as the samples that were described earlier. The results were examined by PAGE. The extended product bands were identified by autoradiography, excised and counted (data not shown). […]
71-mer was made up in Taq buffer. Samples were prepared as follows: 1) dark control samples were not subjected to activating light; 2) 10 μl samples of the 71-mer (2×10^−9 M) were irradiated in the presence of 200 μg/ml AMDMIP, and 3) 10 μl samples of a 200 μg/ml solution of AMDMIP were irradiated in the absence of the 71-mer target. All irradiations were carried out with the CE-I device at 25° C. After preparing the above samples, unirradiated AMDMIP was added to one set of the dark control samples. Another set of dark controls received irradiated AMDMIP. ^32P-SK-39 primer and dNTPs were then added to all samples and the volume was adjusted to 18 μl. These samples were denatured at 95° C. for 5 minutes, followed by equilibration at 55° C. for 3 minutes. Taq polymerase was then added and the extension reaction was carried out for 5 minutes. The reaction was stopped by bringing the samples to 10 mM in EDTA. The final concentrations of all reagents during the extension reactions were: […]

Structure (SMILES)	block of primer extension by 71-mer monoadduct [1]	extension of 71-mer irradiated with compound ([2]; MIP 60 μg/ml)	extension of 71-mer irradiated in the presence of AMDMIP ([2]; 200 μg/ml during irradiation, CE-I at 25° C.)	extension of 71-mer, dark control with unirradiated AMDMIP ([2]; AMDMIP 100 μg/ml final)	amount of full length product versus control samples ([2]; MIP 60 μg/ml, irradiated 15 minutes CE-I)
NCc1cc2occc2c2oc(=O)ccc12 [AMIP, 5-Aminomethylisopsoralen]	complete stops	not extended at all			
Cc1oc2ccc3c(C)cc(=O)oc3c2c1CN [AMDMIP, 4′-Aminomethyl-4,5′-dimethylisopsoralen]	complete stop	not extended at all	no extension products at all	full length extension product	
Cc1cc2occc2c2oc(=O)ccc12 [MIP, 5-Methylisopsoralen]	complete stops	some full length extension product and a minor truncated product			half of that observed with the control samples
